Six compounds from paper PMC11325505, “Nitrogen-Containing Flavonoids—Preparation and Biological Activity” (ACS Omega, 2024) can be followed below.

Converted amounts (≈) assume the structure as drawn. “And” between values parts separate entries of the source, which are not always exact repeats. Equal values may be shown once. Read-outs that look alike come from different tables or passages of the source.

One assay has as its system MRSA 1584. Kind of assay: Mode of antimicrobial action with gentamicin, aac(6')/aph(2')-positive strain. The format is cell-based, Staphylococcus aureus. The note with it: for effect (mode of action with gentamicin) / FIC (Fractional Inhibitory Concentration Index) / MIC: MRSA 1584; for MIC, Gentamicin [1 mg/L] yes: MRSA 1584 (aac(6')/aph(2')), with gentamicin 1 mg/L; for FIC (Fractional Inhibitory Concentration Index): with gentamicin; for MIC: Staphylococcus aureus, 24 h, read-out: MIC, Gentamicin [1 mg/L] no, without gentamicin. An excerpt:
Among the mechanisms of resistance to gentamicin previously described in S. aureus, the presence of enzymes that alter the structure of aminoglycosides is crucial. These enzymes can transfer nucleotides, phosphates, or acetyls to various −OH or −NH2 groups of gentamicin, preventing its subsequent interaction with the cellular target, i.e., the 30S ribosomal subunit. The bifunctional aminoglycoside-modifying enzyme with acetylation and phosphotransferase activities encoded by the gene aac(6’)/aph(2’), 4′,4″ adenyltransferase encoded by the aadD gene, and aminoglycoside O-phosphotransferase encoded by the gene aph(3′) are the most important.[37] […] For this reason, further testing continued using strains MRSA 3596 and MRSA 1584, which inactivate gentamicin only by a single mechanism (aadD and aac(6’)-aph(2’’), respectively).
(§1) Sensitization of multidrug-resistant clinical bacterial strains was performed according to ref[15]. Antibiotic cutoff concentration was chosen according to the European Committee on Antimicrobial Susceptibility Testing (EUCAST, Clinical breakpoints–bacteria, ver. 11.0). The 200 μM concentration of the derivatives was chosen as the highest test concentration. The absorbance detected at 600 nm was then used to estimate the number of viable cells after 24 h of incubation at 37 °C and 120 rpm.
(§2) Experiments were performed with the respective number of replicates indicated in each figure/table. MIC was determined as IC70. Both IC70 and IC50 values were calculated using the following nonlinear regression in the software GraphPad Prism: […]

Assay [1] relates to immortalized human keratinocytes (HaCaT). In words: Cytotoxicity (resazurin assay), keratinocytes. In kind it is cell-based. The note with it: Homo sapiens, HaCaT, 72 h, read-out: HaCaT IC50 (concentration that halved the viability). The protocol:
(§3) The cytotoxicity of the prepared derivatives was evaluated by their ability to decrease the viability of immortalized human keratinocytes (HaCaT) and human dermal fibroblasts (HDF).
(§4) 100 μL of cell suspension containing 10^5 cells/mL was pipetted into a 96-well plate. After 24 h incubation, the tested compounds were added in the concentration range 12.5–200 μM. After 72 h incubation, the cell viability was tested by standard resazurin assay.[41] Briefly, the cells were washed with PBS and incubated with 100 μL of resazurin solution (0.025 mg/mL) for 2 h. The fluorescence was measured at a wavelength of 560 nm excitation/590 nm emission.

The subject of assay [2] is human dermal fibroblasts (HDF). In words: Cytotoxicity (resazurin assay), fibroblasts. The note with it: Homo sapiens, Fibroblast, 72 h, read-out: HDF IC50 (concentration that halved the viability). The format is cell-based. The protocol: as §3, §4
For assay [3], the system named is tumor necrosis factor (TNF-α) production by RAW 264.7 stimulated by LPS. In words: Anti-inflammatory activity: TNF-α production by LPS-stimulated macrophages. The format is cell-based, Murine. The note with it: Mus musculus, RAW264.7; LPS-stimulated RAW 264.7; average of four repetitions ± SEM; read-out: TNFα production IC50. The protocol:
The anti-inflammatory activity of flavonoids was evaluated as their ability to decrease the production of signaling molecules that mediate inflammation, such as nitric oxide (NO), tumor necrosis factor (TNF-α), and interleukin 6 (IL-6), in LPS-stimulated macrophages.
The anti-inflammatory activity of the tested flavonoids was determined as the ability to reduce the production of nitric oxide (NO), tumor necrosis factor (TNF-α), and interleukin 6 (IL-6) by RAW 264.7 stimulated by LPS, as previously described.[39],[40] Briefly, 1 × 10^6 cells/mL was seeded into the 96-well plate (100 μL/well). After 48 h, LPS (100 ng/mL) and the samples (3–100 μM) were added to the MEM medium. After 24 h, the medium was mixed with Griess reagent (0.04 g/mL) at a 1:1 ratio. The absorbance was measured after 15 min at 540 nm. Cell viability was determined using the resazurin assay.
To determine TNF-α levels, cells were precultivated with the tested compounds for 24 h. After 2 h of incubation with LPS, the medium was diluted 1:10 with ELISA diluent. To determine the level of IL-6, cells were cultivated for 6 h with LPS and the tested compounds. Cytokine production was determined using an uncoated ELISA performed according to the manufacturer’s instructions.

Assay [4] concerns Methicilin-Resistant S. aureus 331 Strain. Kind of assay: Mode of antimicrobial action with erythromycin, ermC-positive strain. The format is cell-based. The note with it: for MIC, erythromycin [1 mg/L] yes / MIC, erythromycin [1 mg/L] no: MRSA 331 (ermC); for MIC, erythromycin [1 mg/L] yes: with erythromycin 1 mg/L; for MIC, erythromycin [1 mg/L] no: without erythromycin; for FIC (Fractional Inhibitory Concentration Index): with erythromycin.
From the text: Erythromycin is a macrolide antibiotic that inhibits proteosynthesis by binding to the 50S subunit of the ribosome. In Staphylococcus species, resistance to erythromycin is associated with the presence of methyltransferases (encoded by erm genes) that alter the ribosomal target site. Another typical mechanism of resistance to erythromycin is the presence of an ATP-dependent efflux pump encoded by the msr(A) gene or a major facilitator superfamily (MFS) pump encoded by the lmrS gene. Both efflux pumps reduce the concentration of erythromycin in the cell below the therapeutic dose by transporting it across the membrane to the extracellular space. Another erythromycin resistance gene is the mph(C) gene, the product of which is a phosphotransferase that alters the structure of macrolide antibiotics. To elucidate the mechanism of erythromycin resistance modulation in S. aureus, further tests were performed with the strains MRSA 331 and MRSA 3596, which inactivate erythromycin via a single mechanism (ermC and ermA, respectively). […] Therefore, if the activity was not strain-specific, it would be necessary to consider the effect of the derivatives on this pump (Table 3).
as §1, §2

Assay [5] concerns Staphylococcus aureus MRSA 9. Kind of assay: Modulation of antibiotic-resistant phenotype (flavonoid plus breakpoint concentration of antibiotic). In kind it is cell-based. The settings on record: for minimum inhibitory concentration (MIC) in the presence of erythromycin: erythromycin at breakpoint concentration 1 mg/L; for minimum inhibitory concentration (MIC) in the presence of erythromycin / minimum inhibitory concentration (MIC) in the presence of gentamicin: MIC determined as IC70, three repetitions ± SEM; for minimum inhibitory concentration (MIC) in the presence of gentamicin: gentamicin at breakpoint concentration 1 mg/L. The protocol:
To evaluate the ability to modulate bacterial resistance, the tested flavonoids themselves cannot exert antimicrobial activity; therefore, the nontoxic concentration was used, as indicated in Table S5. Clinically relevant antibiotics were selected at breakpoint concentrations for susceptibility testing according to the European Committee on Antimicrobial Susceptibility Testing (EUCAST, version 11.0). […] Flavonoids and their derivatives (from 1 μM to the highest nontoxic concentration) were used in combination with the breakpoint concentration of the antibiotics. After coincubation, the minimum inhibitory concentration (MIC) of flavonoids inhibiting the visible growth of bacteria was determined (Table 2).
as §1, §2

The mark [6] stands for this setting: 72 h incubation, resazurin, average of three repetitions ± SEM.

Consider `O=c1c(O)c(-c2ccc(O)c(O)c2)oc2cc(O)cc(O)c12` [compound 4, quercetin, reference compound], for which, in the assay with MRSA 1584, the “effect (mode of action with gentamicin)” value is on record as “additive (> 0.5-1 indicates additive effects)”; the “MIC, Gentamicin [1 mg/L] yes” value worked out at 55.6 ± 1.1 µM (≈ 16.8 µg/mL); the “FIC (Fractional Inhibitory Concentration Index)” value worked out at 0.63 ± 0.01; the MIC came out at 88.6 ± 0.3 µM (≈ 26.8 µg/mL). In assay [1], the IC50 was 127 ± 3.4 µM. Besides, in assay [2], the IC50 came out at 80 ± 1.5 µM. In addition, the IC50 in assay [3] was 55.1 ± 2.1 µM. For the same compound, in assay [4], the “MIC, erythromycin [1 mg/L] yes” value amounted to 190.9 ± 0.5 µM (≈ 57.7 µg/mL) and the “MIC, erythromycin [1 mg/L] no” value was 193.1 ± 1.0 µM (≈ 58.4 µg/mL). The “FIC (Fractional Inhibitory Concentration Index)” value in assay [4] (MRSA 331) was found to be 0.99 ± 0.01. Also, in assay [5] (Staphylococcus aureus, MRSA, with gentamicin 1 mg/L, maximum concentration used (200 μM), read-out: maximum concentration used inhibited bacterial growth to), the inhibition at 200 µM was 57%. In addition, in assay [5], the “minimum inhibitory concentration (MIC) in the presence of erythromycin” value was found to be 117.3 ± 4.7 µM and the “minimum inhibitory concentration (MIC) in the presence of gentamicin” value is recorded as >200 ^note 1 μM.

As to `O=c1cc(-c2ccc(O)c(O)c2)oc2c(Nc3ccccc3)c(O)cc(O)c12` [compound 13, 2-(3,4-Dihydroxyphenyl)-8-(anilino)-5,7-dihydroxy-4H–1-benzopyran-4-one], in the assay with MRSA 1584, the “effect (mode of action with gentamicin)” value was “additive (> 0.5-1 indicates additive effects)”; the “MIC, Gentamicin [1 mg/L] yes” value is on record as 49.9 ± 8.1 µM (≈ 18.8 µg/mL); the “FIC (Fractional Inhibitory Concentration Index)” value was determined as 0.70 ± 0.12; the MIC is 70.9 ± 0.3 µM (≈ 26.8 µg/mL). In addition, the IC50 in assay [1] (setting [6]) stood at 41.4 ± 3.7 µM. For the same compound, the IC50 in assay [2] (setting [6]) was determined as 58.3 ± 2.7 µM. The IC50 in assay [3] is more than 25 µM. Besides, in assay [5], the “minimum inhibitory concentration (MIC) in the presence of erythromycin” value was more than 200 µM and the “minimum inhibitory concentration (MIC) in the presence of gentamicin” value came to 24.7 ± 0.8 µM.

As for `O=c1c(O)c(-c2ccc(O)c(O)c2)oc2c(Nc3ccc(C(F)(F)F)cc3)c(O)cc(O)c12` [compound 8, 2-(3,4-Dihydroxyphenyl)-8-(4-(trifluoromethyl)anilino)-3,5,7-trihydroxy-4H–1-benzopyran-4-one], in the assay on MRSA 1584, the “effect (mode of action with gentamicin)” value is recorded as “additive (> 0.5-1 indicates additive effects)”; the “MIC, Gentamicin [1 mg/L] yes” value came to 23.9 ± 0.1 µM (≈ 11 µg/mL); the MIC was found to be 24.5 ± 0.4 µM (≈ 11.3 µg/mL). The IC50 in assay [1] is 117.1 ± 0.1 µM. For the same compound, the IC50 in assay [2] amounted to 111.9 ± 0.5 µM. In addition, the IC50 in assay [3] was more than 50 µM. In addition, in assay [4] (MRSA 331), the “effect (mode of action with erythromycin)” value is “antagonism (≥2 indicates antagonism)”. In assay [4], the “MIC, erythromycin [1 mg/L] yes” value amounted to 15.9 ± 0.8 µM (≈ 7.34 µg/mL) and the “MIC, erythromycin [1 mg/L] no” value was 6.9 ± 0.2 µM (≈ 3.18 µg/mL). In assay [5], the “minimum inhibitory concentration (MIC) in the presence of erythromycin” value was >25 ^note 3 μM; the “minimum inhibitory concentration (MIC) in the presence of gentamicin” value is 8.1 µM and 8.1 ± 0.6 µM.

`O=c1cc(-c2ccc(O)c(O)c2)oc2c(Nc3ccc(C(F)(F)F)cc3)c(O)cc(O)c12` [compound 14, 2-(3,4-Dihydroxyphenyl)-8-(4-(trifluoromethyl)anilino)-5,7-dihydroxy-4H–1-benzopyran-4-one]: in the assay on MRSA 1584, the “effect (mode of action with gentamicin)” value is recorded as “indifferent (> 1 to < 2 indicates indifference)”; the “MIC, Gentamicin [1 mg/L] yes” value is listed as 26.1 ± 1.6 µM (≈ 11.6 µg/mL); the “FIC (Fractional Inhibitory Concentration Index)” value was found to be 1.71 ± 0.26; the MIC was 15.3 ± 1.3 µM (≈ 6.81 µg/mL). The IC50 in assay [1] amounted to 26.8 ± 1.6 µM. Moreover, the IC50 in assay [2] stood at 29.9 ± 1.1 µM. Further, the IC50 in assay [3] is more than 25 µM. Also, in assay [4], the “MIC, erythromycin [1 mg/L] yes” value stood at 27.0 ± 1.5 µM (≈ 12 µg/mL) and the “MIC, erythromycin [1 mg/L] no” value came out at 27.0 ± 5.1 µM (≈ 12 µg/mL). Further, the “FIC (Fractional Inhibitory Concentration Index)” value in assay [4] (MRSA 331) is 1.00 ± 0.25. Also, in assay [5], the “minimum inhibitory concentration (MIC) in the presence of erythromycin” value is >15 ^note 5 μM.

Regarding `O=c1c(O)c(-c2ccc(O)c(O)c2)oc2c(Nc3ccc(F)cc3)c(O)cc(O)c12` [compound 5, 2-(3,4-Dihydroxyphenyl)-8-(4-fluoroanilino)-3,5,7-trihydroxy-4H–1-benzopyran-4-one], in the assay with MRSA 1584, the “effect (mode of action with gentamicin)” value is reported as “additive (> 0.5-1 indicates additive effects)”; the “MIC, Gentamicin [1 mg/L] yes” value came out at 28.2 ± 0.5 µM (≈ 11.6 µg/mL); the “FIC (Fractional Inhibitory Concentration Index)” value is 0.97 ± 0.02; the MIC worked out at 29.2 ± 0.1 µM (≈ 12 µg/mL). The IC50 in assay [1] (setting [6]) worked out at 37.6 ± 3.4 µM. Besides, the IC50 in assay [2] (setting [6]) turned out to be 95.9 ± 6.1 µM. Moreover, the IC50 in assay [3] was more than 50 µM. Besides, in assay [5], the “minimum inhibitory concentration (MIC) in the presence of erythromycin” value is more than 200 µM and the “minimum inhibitory concentration (MIC) in the presence of gentamicin” value was 45.2 ± 0.6 µM.

As for `O=c1cc(-c2ccc(O)c(O)c2)oc2c(Nc3cccc(F)c3)c(O)cc(O)c12` [compound 15, 2-(3,4-Dihydroxyphenyl)-8-(3-fluoroanilino)-5,7-dihydroxy-4H–1-benzopyran-4-one], in the assay on MRSA 1584, the “effect (mode of action with gentamicin)” value was “additive (> 0.5-1 indicates additive effects)”; the “MIC, Gentamicin [1 mg/L] yes” value was determined as 27.6 ± 0.5 µM (≈ 10.9 µg/mL); the “FIC (Fractional Inhibitory Concentration Index)” value is 0.96 ± 0.02; the MIC turned out to be 28.6 ± 0.1 µM (≈ 11.3 µg/mL). In assay [1] (setting [6]), the IC50 came out at 26 ± 5.8 µM. Besides, the IC50 in assay [2] (setting [6]) stood at 30.9 ± 2.1 µM. Further, the IC50 in assay [3] was more than 25 µM. In addition, in assay [5], the “minimum inhibitory concentration (MIC) in the presence of erythromycin” value was more than 200 µM and the “minimum inhibitory concentration (MIC) in the presence of gentamicin” value was found to be 12.4 ± 0.3 µM.
